# According to ChEMBL document CHEMBL4706519, “Evaluation of N-phenyl-2-aminothiazoles for treatment of multi-drug resistant and intracellular Staphylococcus aureus infections” (Eur J Med Chem, 2020):
# Experiments:
# [1] = test system: Staphylococcus aureus; assay: Antibacterial activity against methicillin-resistant Staphylococcus aureus USA300 NRS384 assessed as inhibition of bacterial growth measured after 18 to 20 hrs by broth microdilution method; format: functional; conditions: time 18-20 hrs
# [2] = test system: Escherichia coli; assay: Antibacterial activity against Escherichia coli JW55031 harboring toIC efflux mutant assessed as inhibition of bacterial growth measured after 18 to 20 hrs by broth microdilution method; format: functional; conditions: time 18-20 hrs
# [3] = test system: Escherichia coli; assay: Antibacterial activity against wild type Escherichia coli BW25113 assessed as inhibition of bacterial growth measured after 18 to 20 hrs by broth microdilution method; format: functional; conditions: time 18-20 hrs
# [4] = test system: Streptococcus pneumoniae; assay: Ratio of MBC to MIC for cephalosporin-resistant Streptococcus pneumoniae ATCC 51916 assessed as inhibition of bacterial growth measured after 18 to 20 hrs by CLSI protocol based broth microdilution method; format: functional; conditions: time 18-20 hrs
# [5] = test system: Listeria monocytogenes; assay: Ratio of MBC to MIC for Listeria monocytogenes ATCC 19111 assessed as inhibition of bacterial growth measured after 18 to 20 hrs by CLSI protocol based broth microdilution method; format: functional; conditions: time 18-20 hrs
# [6] = test system: Enterococcus faecium; assay: Ratio of MBC to MIC for vancomycin-resistant Enterococcus faecium ATCC 700221 assessed as inhibition of bacterial growth measured after 18 to 20 hrs by CLSI protocol based broth microdilution method; format: functional; conditions: time 18-20 hrs
# [7] = test system: Enterococcus faecalis; assay: Ratio of MBC to MIC for vancomycin-resistant Enterococcus faecalis ATCC 51299 assessed as inhibition of bacterial growth measured after 18 to 20 hrs by CLSI protocol based broth microdilution method; format: functional; conditions: time 18-20 hrs
# [8] = test system: Staphylococcus aureus; assay: Ratio of MBC to MIC against methicillin-sensitive Staphylococcus aureus ATCC 6538 assessed as inhibition of bacterial growth measured after 18 to 20 hrs by CLSI broth microdilution method; format: functional; conditions: time 18-20 hrs
# [9] = test system: Staphylococcus aureus; assay: Antibacterial activity against vancomycin-resistant Staphylococcus aureus 10 assessed as inhibition of bacterial growth measured after 18 to 20 hrs by CLSI protocol based broth microdilution method; format: functional; conditions: time 18-20 hrs
# [10] = test system: Staphylococcus epidermidis; assay: Ratio of MBC to MIC for methicillin-resistant Staphylococcus epidermidis NRS101 assessed as inhibition of bacterial growth measured after 18 to 20 hrs by CLSI protocol based broth microdilution method; format: functional; conditions: time 18-20 hrs
# [11] = test system: Staphylococcus aureus; assay: Antibacterial activity against vancomycin-resistant Staphylococcus aureus 12 assessed as inhibition of bacterial growth measured after 18 to 20 hrs by CLSI protocol based broth microdilution method; format: functional; conditions: time 18-20 hrs
# [12] = test system: Staphylococcus epidermidis; assay: Antibacterial activity against methicillin-resistant Staphylococcus epidermidis NRS101 assessed as inhibition of bacterial growth measured after 18 to 20 hrs by CLSI protocol based broth microdilution method; format: functional; conditions: time 18-20 hrs
# [13] = test system: Enterococcus faecium; assay: Antibacterial activity against vancomycin-resistant Enterococcus faecium ATCC 700221 assessed as inhibition of bacterial growth measured after 18 to 20 hrs by CLSI protocol based broth microdilution method; format: functional; conditions: time 18-20 hrs
# [14] = test system: Listeria monocytogenes; assay: Antibacterial activity against Listeria monocytogenes ATCC 19111 assessed as inhibition of bacterial growth measured after 18 to 20 hrs by CLSI protocol based broth microdilution method; format: functional; conditions: time 18-20 hrs
# [15] = test system: Streptococcus pneumoniae; assay: Antibacterial activity against cephalosporin-resistant Streptococcus pneumoniae ATCC 51916 assessed as inhibition of bacterial growth measured after 18 to 20 hrs by CLSI protocol based broth microdilution method; format: functional; conditions: time 18-20 hrs
# [16] = test system: Streptococcus pneumoniae; assay: Antibacterial activity against methicillin-resistant Streptococcus pneumoniae ATCC 700677 assessed as inhibition of bacterial growth measured after 18 to 20 hrs by CLSI protocol based broth microdilution method; format: functional; conditions: time 18-20 hrs
# [17] = test system: Staphylococcus aureus; assay: Ratio of MBC to MIC against methicillin-sensitive Staphylococcus aureus NRS107 assessed as inhibition of bacterial growth measured after 18 to 20 hrs by CLSI protocol based broth microdilution method; format: functional; conditions: time 18-20 hrs
# [18] = test system: Staphylococcus aureus; assay: Bactericidal activity against methicillin-resistant Staphylococcus aureus USA400 NRS123 assessed as log reduction in viable bacteria count at 5 times MIC incubated for 2 hrs in soy broth followed by incubation for 18 to 20 hrs on agar plate by time kill assay; format: functional; conditions: time 20-22 hrs
# [19] = test system: Staphylococcus aureus; assay: Bactericidal activity against methicillin-resistant Staphylococcus aureus USA400 NRS123 assessed as post-antibiotic effect at 5 times MIC incubated for 2 hrs followed by compound wash-out by viable plate count method; format: functional
# [20] = Cytotoxicity against human Caco-2 cells assessed as cell viability at 32 ug/ml incubated for 2 hrs by MTS assay relative to control; format: cell-based; conditions: at 32 µg/mL, read-out: Activity
# [21] = Selectivity index, ratio of maximum non-toxic concentration for human Caco-2 cells to MIC for methicillin-resistant Staphylococcus aureus USA500 NRS385; format: toxicity
# [22] = Selectivity index, ratio of maximum non-toxic concentration for human Caco-2 cells to MIC for methicillin-resistant Staphylococcus aureus USA400 NRS123; format: toxicity
# [23] = Selectivity index, ratio of maximum non-toxic concentration for human Caco-2 cells to MIC for methicillin-resistant Staphylococcus aureus NRS119; format: toxicity
# [24] = Selectivity index, ratio of maximum non-toxic concentration for human Caco-2 cells to MIC for methicillin-resistant Staphylococcus aureus USA300 NRS384; format: toxicity
# [25] = test system: Staphylococcus aureus; assay: Antibacterial activity against methicillin-resistant Staphylococcus aureus USA400 NRS123 infected in mouse J774 cells assessed as reduction in intracellular bacterial burden at 2 x MIC measured after 24 hrs relative to control; format: functional
# [26] = test system: Staphylococcus aureus; assay: Antibacterial activity against methicillin-resistant Staphylococcus aureus USA400 NRS123 infected in mouse J774 cells assessed as reduction in intracellular bacterial burden at 4 x MIC measured after 24 hrs relative to control; format: functional
# [27] = test system: Streptococcus pneumoniae; assay: Ratio of MBC to MIC for methicillin-resistant Streptococcus pneumoniae ATCC 700677 assessed as inhibition of bacterial growth measured after 18 to 20 hrs by CLSI protocol based broth microdilution method; format: functional; conditions: time 18-20 hrs
# [28] = test system: Staphylococcus aureus; assay: Bactericidal activity against methicillin-resistant Staphylococcus aureus USA400 NRS123 assessed as eradication of bacterial count at 5 times MIC incubated for 2 hrs in soy broth followed by incubation for 18 to 20 hrs on agar plate by time kill assay; format: functional; conditions: time 20-22 hrs
# [29] = Selectivity index, ratio of maximum non-toxic concentration for human Caco-2 cells to MIC for methicillin-resistant Staphylococcus aureus USA700 NRS386; format: toxicity
# [30] = test system: J774; assay: Cytotoxicity against mouse J774 cells assessed as cell viability at 32 ug/ml incubated for 2 hrs by MTS assay; format: cell-based; conditions: j774, 2 h, dose 32 µg/ml
# [31] = test system: Staphylococcus aureus; assay: Antibacterial activity against methicillin-resistant Staphylococcus aureus USA400 NRS123 infected in mouse J774 cells assessed as log reduction in intracellular bacterial burden at 2 x MIC measured after 24 hrs; format: functional
# [32] = test system: Staphylococcus aureus; assay: Antibacterial activity against methicillin-resistant Staphylococcus aureus USA400 NRS123 infected in mouse J774 cells assessed as log reduction in intracellular bacterial burden at 4 x MIC measured after 24 hrs; format: functional
# [33] = test system: Staphylococcus aureus; assay: Ratio of MIC for methicillin-resistant Staphylococcus aureus USA400 NRS123 measured after 7th passage to MIC for methicillin-resistant Staphylococcus aureus USA400 NRS123 measured after 18 to 20 hrs by broth microdilution assay; format: functional
# [34] = test system: Staphylococcus aureus; assay: Ratio of MIC for methicillin-resistant Staphylococcus aureus USA400 NRS123 measured after 14th passage to MIC for methicillin-resistant Staphylococcus aureus USA400 NRS123 measured after 18 to 20 hrs by broth microdilution assay; format: functional
# [35] = test system: Staphylococcus aureus; assay: microbe, parasite or virus in culture; conditions: ATCC 6538
# [36] = test system: Staphylococcus aureus; assay: microbe, parasite or virus in culture; conditions: NRS107
# [37] = test system: Staphylococcus aureus; assay: microbe, parasite or virus in culture; conditions: NRS119
# [38] = test system: Staphylococcus aureus; assay: microbe, parasite or virus in culture; conditions: USA400 NRS123
# [39] = test system: Staphylococcus aureus; assay: microbe, parasite or virus in culture; conditions: USA500 NRS385
# [40] = test system: Staphylococcus aureus; assay: microbe, parasite or virus in culture; conditions: USA700 NRS386
# [41] = test system: Enterococcus faecalis; assay: microbe, parasite or virus in culture; conditions: ATCC 51299
compound,measurement,setting,value
C/C(=N\NC(=N)N)c1ccc(Nc2nc(-c3ccc(Cl)cc3)cs2)cc1,MIC,[1],4 µg/mL
same,MIC,[2],8 µg/mL
same,MIC,[3],8 µg/mL
same,Ratio,[4],1
same,Ratio,[5],1
same,Ratio,[6],1
same,Ratio,[7],1
same,Ratio,[8],1
same,MBC,[9],1 µg/mL
same,MIC,[9],1 µg/mL
same,Ratio,[10],1
same,MBC,[11],1 µg/mL
same,MIC,[11],1 µg/mL
same,MBC,[12],1 µg/mL
same,MIC,[12],1 µg/mL
same,MBC,[13],2 µg/mL
same,MIC,[13],1 µg/mL
same,MBC,[14],2 µg/mL
same,MIC,[14],1 µg/mL
same,MBC,[15],4 µg/mL
same,MIC,[15],2 µg/mL
same,MBC,[16],4 µg/mL
same,MIC,[16],2 µg/mL
same,Ratio,[17],1
same,Activity,[18],3 log10CFU/ml
same,PAE,[19],4 h
same,"viability at 2 h, 32 ug/ml",[20],100%
same,selectivity ratio,[21],16
same,selectivity ratio,[22],16
same,selectivity ratio,[23],16
same,selectivity ratio,[24],16
same,inhibition (INH),[25],69%
same,inhibition (INH),[26],97%
same,Ratio,[27],1
same,Activity,[28],100%
same,selectivity ratio,[29],16
same,Activity,[30],Non-Toxic
same,Activity,[31],0.51 log10CFU/ml
same,Activity,[32],1.56 log10CFU/ml
same,Ratio,[33],1
same,Ratio,[34],3
same,MBC,[35],1 µg/mL
same,MIC,[35],1 µg/mL
same,MBC,[36],1 µg/mL
same,MIC,[36],1 µg/mL
same,MBC,[37],1 µg/mL
same,MIC,[37],1 µg/mL
same,MBC,[38],1 µg/mL
same,MIC,[38],1 µg/mL
same,MBC,[39],2 µg/mL
same,MIC,[39],1 µg/mL
same,MBC,[40],4 µg/mL
same,MIC,[40],1 µg/mL
same,MBC,[41],4 µg/mL
same,MIC,[41],1 µg/mL
